According to PubChem BioAssay AID588615 (The Scripps Research Institute Molecular Screening Center, 2011):
Active and inactive are the calls of the source.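 Rule for the calls: active = p38 protein level shifted by 30% or more versus DMSO-treated cells, either down or up; inactive = shift in p38 protein level below 30%.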

What was measured:
[1] = tested on: DLD-1 cells, p38 western blot, 24 h; experiment: total p38 protein level change, either direction, late-stage follow-up, counter-screen for KLF5 inhibitor project, DLD1 cells, chemiluminescent western blot, powder samples (AID 588615); details: measured here: p38 band fold change vs DMSO; at 10 µM
[2] = molecular target: Mitogen-activated protein kinase 14 (Homo sapiens) (UniProt Q16539); experiment: as above; details: DLD-1 cells, p38 western blot, 24 h; at 10 µM; stronger effect = higher value
Sequence of Mitogen-activated protein kinase 14 (Homo sapiens) (Q16539 whole entry, looked up): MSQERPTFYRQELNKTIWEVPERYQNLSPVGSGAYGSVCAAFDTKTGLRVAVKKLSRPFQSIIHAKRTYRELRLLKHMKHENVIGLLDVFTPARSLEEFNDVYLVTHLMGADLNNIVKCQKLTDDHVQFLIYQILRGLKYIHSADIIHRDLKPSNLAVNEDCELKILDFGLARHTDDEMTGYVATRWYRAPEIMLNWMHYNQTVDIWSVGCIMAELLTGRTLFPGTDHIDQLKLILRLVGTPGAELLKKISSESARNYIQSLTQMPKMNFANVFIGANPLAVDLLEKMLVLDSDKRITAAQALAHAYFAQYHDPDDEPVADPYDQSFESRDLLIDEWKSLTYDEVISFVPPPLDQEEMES

inhibition [2] | SMILES | fold change [1]
-5.46% (inactive) | CN(C(=O)CNC(=O)/C=C/c1cccc(Cl)c1)C1CCS(=O)(=O)C1 (centres undefined) | 1.05
12.3% (inactive) | CN(C(=O)CNC(=O)/C=C/c1cccc(Cl)c1)C1CCS(=O)(=O)CC1 | 
19.9% (inactive) | CN(C(=O)COC(=O)/C=C/c1cccc([N+](=O)[O-])c1)C1CCS(=O)(=O)C1 (centres undefined) | 
